According to US8163737B2 (Vertex Pharmaceuticals Incorporated, priority 2006, dated 2012):
pIC50, pKi: −log10 of the molar value.

Key:
[1] = biological target: endogenous CGRP receptor (Homo sapiens, UniProt O60894+Q16602); assay: CGRP functional antagonism using SK-N-MC-BLA (4C10), β-lactamase transcriptional reporter assay; format: cell-based; settings: SK-N-MC (4C10) cells, inhibition of β-lactamase expression in the presence of 200 pM CGRP
[2] = biological target: T1, CGRP receptor (SK-N-MC membrane) (Homo sapiens, UniProt O60894+Q16602); assay: I125-CGRP binding displacement assay on purified SK-N-MC membrane
T1 construct: Purified SK-N-MC membrane was purchased from Perkin Elmer; purchased Perkin Elmer; host or cells: SK-N-MC membrane
T1 sequence (Q16602 23-461): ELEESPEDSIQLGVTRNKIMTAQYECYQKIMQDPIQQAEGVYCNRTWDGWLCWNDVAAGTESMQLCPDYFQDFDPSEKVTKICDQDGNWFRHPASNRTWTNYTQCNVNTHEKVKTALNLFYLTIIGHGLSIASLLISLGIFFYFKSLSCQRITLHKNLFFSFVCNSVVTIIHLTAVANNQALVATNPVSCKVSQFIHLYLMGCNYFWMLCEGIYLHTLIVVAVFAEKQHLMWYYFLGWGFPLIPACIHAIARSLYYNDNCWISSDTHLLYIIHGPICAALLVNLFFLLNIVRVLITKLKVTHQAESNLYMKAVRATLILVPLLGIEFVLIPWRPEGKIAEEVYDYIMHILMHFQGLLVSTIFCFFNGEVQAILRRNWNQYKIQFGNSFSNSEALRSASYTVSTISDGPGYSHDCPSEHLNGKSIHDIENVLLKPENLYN
T1 sequence (O60894 27-148): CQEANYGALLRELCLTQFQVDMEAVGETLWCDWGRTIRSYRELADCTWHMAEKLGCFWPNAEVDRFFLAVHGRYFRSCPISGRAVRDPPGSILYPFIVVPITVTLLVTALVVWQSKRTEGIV
Protocol: Purified SK-N-MC membrane was purchased from Perkin Elmer. The membrane was thawed quickly and placed on ice. The compounds were diluted with CGRP binding solution (25 mM Tris-HCl, pH7.4, 5 mM MgCl2, 0.1% BSA and 0.05% Tween). The membrane was diluted 1:20 with the binding solution and homogenized with Tissue Matster-50 Homogenizer (Omni International) for 30 sec. The homogenized membrane was added to compounds in the binding solution. […] After 2 hour incubation at room temperature, the reaction was stopped by rapid filtration through 0.5% PEI treated GF/C filter plate (Perkin Elmer) and the filter plate was washed with ice-cold washing solution (50 mM Tris HCl, pH7.4, 5 mM MgCl2 and 0.1% BSA) using cell harvestor (Tomtec). The radioactivity of the filter plates were read on Topcount (Packard). The nonspecific binding was determined in the control reaction where 1 uM unlabelled CGRP was preincubated with the membrane prior to I125-CGRP addition. The total binding was determined in the control reaction of the membrane and I125-CGRP in the absence of compound. The percent displacement of I125-CGRP with compounds was calculated using nonspecific and total binding controls. The curve fitting was carried out using MOD3.

Chain of endogenous CGRP receptor (Q16602 23-461): as the sequence (Q16602 23-461) above
Chain of endogenous CGRP receptor (O60894 27-148): as the sequence (O60894 27-148) above

pIC50 [1]	pKi [2]	Compound
> 6.00	> 6.00	CC(C)CCN1C(=O)C(CC(=O)N2CCC3(CC2)CC(=O)c2ccccc2O3)SC1c1ccccc1N1CCN(C)CC1 (centres unmarked) [Compound 331]
< 5.30	< 5.30	CC(C)N1CCN(c2c(F)cccc2C2SC(CC(=O)N3CCC(N4CCc5ccccc5NC4=O)CC3)C(=O)N2CCC(C)(C)C)CC1 (centres unmarked) [Compound 340]
> 6.00	> 6.00	CC(C)N1CCN(c2c(F)cccc2C2SC(CC(=O)N3CCC(n4c(=O)[nH]c5ncccc54)CC3)C(=O)N2CCC(C)(C)C)CC1 (centres unmarked) [Compound 341]
> 6.00	> 6.00	CCN1CCN(c2c(F)cccc2C2SC(CC(=O)N3CCC(N4CCc5ccccc5NC4=O)CC3)C(=O)N2CCC(C)(C)C)CC1 (centres unmarked) [Compound 345]
5.30 to 6.00	< 5.30	CN1CCN(c2cccc(F)c2C2SC(CC(=O)N3CCC(n4c(=O)[nH]c5ccccc54)CC3)C(=O)N2CCC(C)(C)C)CC1 (centres unmarked) [Compound 348]
> 6.00	> 6.00	CCN1CCN(c2c(F)cccc2C2SC(CC(=O)N3CCC(n4c(=O)[nH]c5ncccc54)CC3)C(=O)N2CCC(C)(C)C)CC1 (centres unmarked) [Compound 349]
> 6.00	> 6.00	CN1CCN(c2cccc(F)c2C2SC(CC(=O)N3CCC(n4c(=O)[nH]c5ncccc54)CC3)C(=O)N2CCC(C)(C)C)CC1 (centres unmarked) [Compound 350]
5.30 to 6.00	> 6.00	CN1CCN(c2ccc(F)cc2C2SC(CC(=O)N3CCC(N4Cc5ccccc5NC4=O)CC3)C(=O)N2CCC(C)(C)C)CC1 (centres unmarked) [Compound 351]
> 6.00	> 6.00	CN1CCN(c2ccc(F)cc2C2SC(CC(=O)N3CCC(n4c(=O)[nH]c5ncccc54)CC3)C(=O)N2CCC(C)(C)C)CC1 (centres unmarked) [Compound 353]
> 6.00	> 6.00	CN1CCN(c2ccc(F)cc2C2SC(CC(=O)N3CCC(n4c(=O)[nH]c5ccccc54)CC3)C(=O)N2CCC(C)(C)C)CC1 (centres unmarked) [Compound 354]
> 6.00	> 6.00	CN1CCN(c2c(Cl)cccc2C2SC(CC(=O)N3CCC(n4c(=O)[nH]c5ncccc54)CC3)C(=O)N2CCC(C)(C)C)CC1 (centres unmarked) [Compound 357]
> 6.00	> 6.00	CN1CCN(c2cc(F)ccc2C2SC(CC(=O)N3CCC(n4cc(-c5ccccc5)[nH]c4=O)CC3)C(=O)N2CCC(C)(C)C)CC1 (centres unmarked) [Compound 363]
> 6.00	> 6.00	CCCCN1CCN(c2ccccc2C2SC(CC(=O)N3CCC(N4CCc5ccccc5NC4=O)CC3)C(=O)N2CCC(C)(C)C)CC1 (centres unmarked) [Compound 365]
> 6.00	> 6.00	CC(C)(C)CCN1C(=O)C(CC(=O)N2CCC(N3Cc4ccccc4NC3=O)CC2)SC1c1ccccc1N1CCN(c2ccccc2)CC1 (centres unmarked) [Compound 367]
> 6.00	> 6.00	CC(C)(C)CCN1C(=O)C(CC(=O)N2CCC(N3Cc4ccccc4NC3=O)CC2)SC1c1ccccc1N1CCN(CCO)CC1 (centres unmarked) [Compound 371]
> 6.00	> 6.00	CN1CCN(c2ccccc2[C@@H]2S[C@](C)(CC(=O)N3CCC(N4CCc5ccccc5NC4=O)CC3)C(=O)N2CCC(C)(C)C)CC1 [Compound 375]
> 6.00	> 6.00	CN1CCN(c2ccccc2[C@H]2S[C@](C)(CC(=O)N3CCC(n4c(=O)[nH]c5ncccc54)CC3)C(=O)N2CCC(C)(C)C)CC1 [Compound 380]
> 6.00	> 6.00	CC(C)(C)CCN1C(=O)C(CC(=O)N2CCC(N3CCc4ccccc4NC3=O)CC2)SC1c1cccc(F)c1N1CCN(C2CC2)CC1 (centres unmarked) [Compound 389]
< 5.30	< 5.30	CC(C)(C)CCN1C(=O)C(CC(=O)N2CCC(N3CCc4ccccc4NC3=O)CC2)SC1c1cccc(F)c1N1CCNCC1 (centres unmarked) [Compound 391]
> 6.00	> 6.00	CN1CCN(c2ccc(F)cc2[C@@H]2S[C@@H](CC(=O)N3CCC(n4c(=O)[nH]c5ncccc54)CC3)C(=O)N2CCC(C)(C)C)CC1 [Compound 394]
< 5.30	< 5.30	CN1CCN(c2ccc(F)cc2[C@H]2S[C@@H](CC(=O)N3CCC(n4c(=O)[nH]c5ncccc54)CC3)C(=O)N2CCC(C)(C)C)CC1 [Compound 397]
> 6.00	> 6.00	CN(c1ccccc1C1SC(CC(=O)N2CCC(n3c(=O)[nH]c4ncccc43)CC2)C(=O)N1CCC(C)(C)C)[C@@H]1CCN(Cc2ccccc2)C1 (some centres unmarked) [Compound 402]
5.30 to 6.00	> 6.00	CN(c1ccccc1C1SC(CC(=O)N2CCC(N3CCc4ccccc4NC3=O)CC2)C(=O)N1CCC(C)(C)C)[C@H]1CCN(Cc2ccccc2)C1 (some centres unmarked) [Compound 403]

Second part, the molecule before the results:

Compound	pIC50 [1]	pKi [2]
CC(C)CCN1C(=O)C(CC(=O)N2CCC(N3Cc4ccccc4NC3=O)CC2)SC1c1ccccn1 (centres unmarked) [Compound 266]	> 6.00	> 6.00
CC(C)CCN1C(=O)C(CC(=O)N2CCC(N3Cc4ccccc4NC3=O)CC2)SC1c1ccccc1Br (centres unmarked) [Compound 268]	> 6.00	> 6.00
O=C(CC1SC(c2ccccc2)N(CC2CC2)C1=O)N1CCC(N2Cc3ccccc3NC2=O)CC1 (centres unmarked) [Compound 271]	> 6.00	> 6.00
O=C(CC1SC(c2ccccc2)N(Cc2cccnc2)C1=O)N1CCC(N2Cc3ccccc3NC2=O)CC1 (centres unmarked) [Compound 278]	> 6.00	> 6.00
O=C(CC1SC(c2cccc(F)c2F)N(CC2CCCCC2)C1=O)N1CCC(N2CCc3ccccc3NC2=O)CC1 (centres unmarked) [Compound 279]	> 6.00	> 6.00
Cc1cc(C2SC(CC(=O)N3CCC(N4Cc5ccccc5NC4=O)CC3)C(=O)N2CCC(C)C)cc2cn[nH]c12 (centres unmarked) [Compound 282]	> 6.00	> 6.00
COc1ccc(C2SC(CC(=O)N3CCC(N4Cc5ccccc5NC4=O)CC3)C(=O)N2CCC(C)C)c(F)c1 (centres unmarked) [Compound 283]	5.30 to 6.00	> 6.00
COc1ccc(C2SC(CC(=O)N3CCC(n4cc(-c5ccccc5)[nH]c4=O)CC3)C(=O)N2CCC(C)C)cc1 (centres unmarked) [Compound 286]	5.30 to 6.00	< 5.30
O=C(CC1SC(c2ccccc2)N(c2ccc3[nH]ncc3c2)C1=O)N1CCC(N2Cc3ccccc3NC2=O)CC1 (centres unmarked) [Compound 287]	5.30 to 6.00	5.30 to 6.00
CCN1CCC2(CC1)SC(CC(=O)N1CCC(N3CCc4ccccc4NC3=O)CC1)C(=O)N2CCC(C)(C)C (centres unmarked) [Compound 288]	> 6.00	> 6.00
CC(C)CCN1C(=O)C(CC(=O)N2CCC(n3c(=O)[nH]c4ccccc43)CC2)SC1c1ccccc1-n1ccnc1 (centres unmarked) [Compound 289]	> 6.00	> 6.00
CC(C)CCN1C(=O)C(CC(=O)N2CCC(n3c(=O)[nH]c4ccccc43)CC2)S[C@H]1c1ccccc1N1CCC(O)CC1 (some centres unmarked) [Compound 290]	> 6.00	> 6.00
CC(C)(C)CCN1C(=O)C(CC(=O)N2CCC(n3c(=O)[nH]c4ccccc43)CC2)SC1c1ccccc1-n1ccnc1 (centres unmarked) [Compound 295]	> 6.00	> 6.00
CC(C)(C)CCN1C(=O)C(CC(=O)N2CCC(n3c(=O)[nH]c4ccccc43)CC2)S[C@H]1c1ccccc1N1CCC(O)CC1 (some centres unmarked) [Compound 296]	> 6.00	> 6.00
CC(C)(C)CCN1C(=O)C(CC(=O)N2CCC(n3c(=O)[nH]c4ccccc43)CC2)SC1c1ccccc1-n1cccn1 (centres unmarked) [Compound 297]	> 6.00	> 6.00
CN(C)c1ccccc1C1SC(CC(=O)N2CCC(n3c(=O)[nH]c4ccccc43)CC2)C(=O)N1CCC(C)(C)C (centres unmarked) [Compound 299]	> 6.00	> 6.00
CC(C)(C)CCN1C(=O)C(CC(=O)N2CCC(n3c(=O)[nH]c4ccccc43)CC2)S[C@H]1c1ccccc1N1CCC(O)CC1 (some centres unmarked) [Compound 301]	> 6.00	> 6.00
CN1CCN(c2ccccc2C2SC(CC(=O)N3CCC(n4c(=O)[nH]c5ccccc54)CC3)C(=O)N2CCC(C)(C)C)CC1 (centres unmarked) [Compound 302]	> 6.00	> 6.00
CN1CCN(c2ccccc2C2SC(CC(=O)N3CCC(c4cc5ccccc5[nH]c4=O)CC3)C(=O)N2CCC(C)(C)C)CC1 (centres unmarked) [Compound 303]	> 6.00	> 6.00
CC(C)(C)CCN1C(=O)C(CC(=O)N2CCC(N3Cc4ccccc4NC3=O)CC2)SC1c1ncc[nH]1 (centres unmarked) [Compound 306]	< 5.30	< 5.30
CN1CCN(c2ccccc2C2N(CCC(C)(C)C)C(=O)C(CC(=O)N3CCC(N4Cc5ccccc5NC4=O)CC3)[S+]2[O-])CC1 (centres unmarked) [Compound 307]	> 6.00	> 6.00
CC(C)(C)CCN1C(=O)C(CC(=O)N2CCC(N3Cc4ccccc4NC3=O)CC2)SC12CCCc1ccccc12 (centres unmarked) [Compound 315]	> 6.00	> 6.00
CC(C)(C)CCN1C(=O)C(CC(=O)N2CCC(N3Cc4ccccc4NC3=O)CC2)SC12CCc1ccccc12 (centres unmarked) [Compound 317]	5.30 to 6.00	> 6.00
CN1CCN(c2c(F)cccc2C2SC(CC(=O)N3CCC(N4CCc5ccccc5NC4=O)CC3)C(=O)N2CCC(C)(C)C)CC1 (centres unmarked) [Compound 324]	> 6.00	> 6.00
CN1CCN(c2ccccc2C2SC(CC(=O)N3CCC4(CC3)CC(=O)Nc3ccccc3O4)C(=O)N2CCC(C)(C)C)CC1 (centres unmarked) [Compound 328]	> 6.00	> 6.00
CN1CCN(c2ccccc2C2SC(CC(=O)N3CCC4(CC3)CNC(=O)c3ccccc3O4)C(=O)N2CCC(C)(C)C)CC1 (centres unmarked) [Compound 330]	5.30 to 6.00	> 6.00
